Among the data in patent US10000473B2, “Indazole derivatives useful as glucagon receptor antagonists” (Janssen Pharmaceutica NV, priority 2016, dated 2018) are Ki values, retold here.

Each structure is given as a SMILES string. pKi: −log10 of the molar value.

In the assay the target is T1, human GCGR (Homo sapiens, UniProt P47871).
T1 construct: expressed in transfected cells; host or cells: HEK293 (hGluc-1HEK), pcDNA3.1, G418 selection
T1 sequence (P47871 26-477): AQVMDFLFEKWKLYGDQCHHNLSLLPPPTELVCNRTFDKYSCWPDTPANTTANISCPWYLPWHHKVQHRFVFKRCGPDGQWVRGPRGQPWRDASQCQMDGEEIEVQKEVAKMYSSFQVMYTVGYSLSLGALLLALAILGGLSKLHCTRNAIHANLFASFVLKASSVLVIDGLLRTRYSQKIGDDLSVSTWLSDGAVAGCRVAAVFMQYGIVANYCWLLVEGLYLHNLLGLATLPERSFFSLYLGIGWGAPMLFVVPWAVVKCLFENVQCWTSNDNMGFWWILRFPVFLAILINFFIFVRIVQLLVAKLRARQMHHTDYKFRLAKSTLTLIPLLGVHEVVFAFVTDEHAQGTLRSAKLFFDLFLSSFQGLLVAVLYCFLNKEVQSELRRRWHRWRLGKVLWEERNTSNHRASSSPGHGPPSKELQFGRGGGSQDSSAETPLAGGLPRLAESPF
The assay is described as follows: Cellular functional assay, cAMP readout (glucagon-stimulated cAMP, LANCE TR-FRET). The note with it: HEK293 cells stably expressing full-length human GCGR; glucagon 100 pM; IC50 converted to Ki; read-out: Inhibition of cAMP Ki. It counts as cell-based. A general note: Time-resolved FRET reads energy transfer from a long-lived donor to a nearby acceptor.
As usually defined, the pKi is the negative decadic logarithm of the Ki, by convention in mol/L. For `CCOc1c(-c2ccc(C(F)(F)F)cc2Cl)ccc2c1cnn2C(CC(C)C)c1ccc(C(=O)NCCC(=O)O)nc1` (centres unmarked) [Compound #179, 3-(5-(1-(5-(2-Chloro-4-(trifluoromethyl)phenyl)-4-ethoxy-1H-indazol-1-yl)-3-methylbutyl)picolinamido)propanoic acid], the pKi was 7.62. Then `O=C(O)CCNC(=O)c1ccc(C(CCC(F)(F)F)n2ncc3cc(-c4cc(Cl)cc(Cl)c4)ccc32)cc1` (centres unmarked) [Compound #45, 3-[[4-[1-[5-(3,5-Dichlorophenyl)indazol-1-yl]-4,4,4-trifluorobutyl]benzoyl]amino]propanoic acid], with 5.78; and `Cc1cc(C(F)(F)F)ccc1-c1ccc2nn(C(CC(C)C)c3ccc(C(=O)NCCC(=O)O)cc3)cc2c1` (centres unmarked) [Compound #189, 3-(4-(3-Methyl-1-(5-(2-methyl-4-(trifluoromethyl)phenyl)-2H-indazol-2-yl)butyl)benzamido)propanoic acid], with 6.70.

For `Cc1c(-c2ccc(C(F)(F)F)cc2Cl)ccc2c1cnn2C(CC(C)C)c1ccc(C(=O)NCCC(=O)O)cc1` (centres unmarked) [Compound #55, 3-(4-(1-(5-(2-Chloro-4-(trifluoromethyl)phenyl)-4-methyl-1H-indazol-1-yl)-3-methylbutyl)benzamido)propanoic acid], the pKi was 6.94. Then `O=C(O)CCNC(=O)c1ccc(C(CC2CCC2)n2cc3cc(-c4ccc(C(F)(F)F)cc4)ccc3n2)cc1` (centres unmarked) [compound 211], with 7.07; and `CCCC(c1ccc(C(=O)NCCC(=O)O)cc1)n1ncc2cc(-c3ccc(C(F)(F)F)cc3)ccc21` (centres unmarked) [compound 60], with 6.52. For `O=C(O)CCNC(=O)c1ccc(C(CCC2CCC2)n2cc3cc(-c4ccc(C(F)(F)F)cc4)ccc3n2)cc1` (centres unmarked) [Compound #215, 3-(4-(3-Cyclobutyl-1-(5-(4-(trifluoromethyl)phenyl)-2H-indazol-2-yl)propyl)benzamido)propanoic acid] the value was 6.68; for `Cc1cc(C(F)(F)F)ccc1-c1ccc2nn(C(CC(C)C)c3ccc(C(=O)NCCC(=O)O)nc3)cc2c1C(F)(F)F` (centres unmarked) [Compound #246, 3-(5-(3-Methyl-1-(5-(2-methyl-4-(trifluoromethyl)phenyl)-4-(trifluoromethyl)-2H-indazol-2-yl)butyl)picolinamido)propanoic acid], below 5.28; for `CC(C)CC(c1ccc(C(=O)NCCC(=O)O)cc1)n1ncc2cc(-c3ccc(Cl)cc3Cl)ccc21` (centres unmarked) [Compound #9, 3-(4-(1-(5-(2,4-Dichlorophenyl)-1H-indazol-1-yl)-3-methylbutyl)benzamido)propanoic acid], 6.72. Then `CC(C)CC(c1ccc(C(=O)NCCC(=O)O)cc1)n1cc2cc(-c3ccc4ncccc4c3)ccc2n1` (centres unmarked) [compound 121], with 6.15. As to `COc1c(-c2ccc(C(F)(F)F)cc2C)ccc2c1cnn2[C@H](CC(C)C)c1ccc(C(=O)NCCC(=O)O)cc1` [compound 145, (R)-3-(4-(1-(4-Methoxy-5-(2-methyl-4-(trifluoromethyl)phenyl)-1H-indazol-1-yl)-3-methylbutyl)benzamido)propanoic acid], the pKi is 5.73.

In the case of `COc1c(-c2ccc(C(F)(F)F)cc2Cl)ccc2nn([C@H](CC(C)C)c3ccc(C(=O)NCCC(=O)O)cc3)cc12` [Compound #191, 3-[[4-[(1R)-1-[5-[2-Chloro-4-(trifluoromethyl)phenyl]-4-methoxy-indazol-2-yl]-3-methyl-butyl]benzoyl]amino]propanoic acid], the pKi was 7.46. For `Cc1cc(C(F)(F)F)ccc1-c1ccc2nn(C(CC(C)C)c3ccc(C(=O)NCCC(=O)O)cc3)cc2c1C` (centres unmarked) [Compound #63, 3-(4-(3-Methyl-1-(4-methyl-5-(2-methyl-4-(trifluoromethyl)phenyl)-2H-indazol-2-yl)butyl)benzamido)propanoic acid] the value was 7.55; for `Cc1cc(Cl)ccc1-c1ccc2c(cnn2C(CC2CCCCC2)c2ccc(C(=O)NCCC(=O)O)cc2)c1` (centres unmarked) [compound 194], 6.68; for `CC(c1ccc(C(=O)NCCC(=O)O)cc1)n1ncc2cc(-c3ccc(C(C)(C)C)cc3)ccc21` (centres unmarked) [Compound #68, 3-(4-(1-(5-(4-(tert-Butyl)phenyl)-1H-indazol-1-yl)ethyl)benzamido) propanoic acid], 5.55.

`CC(C)CC(c1ccc(C(=O)NCCC(=O)O)cc1)n1ncc2cc(-c3cnn(C)c3)ccc21` (centres unmarked) [compound 164]: the pKi is below 5.28. For `CC(C)CC(c1ccc(C(=O)NCCC(=O)O)nc1)n1ncc2cc(-c3ccc(C(F)(F)F)cc3Cl)ccc21` (centres unmarked) [Compound #43, 3-(5-(1-(5-(2-Chloro-4-(trifluoromethyl)phenyl)-1H-indazol-1-yl)-3-methylbutyl)picolinamido)propanoic acid] the value was 6.76; for `Cc1cc(C(F)(F)F)ccc1-c1ccc2c(cnn2C(CC(C)C)c2ccc(C(=O)NCCC(=O)O)nc2)c1C` (centres unmarked) [Compound #258, 3-(5-(3-Methyl-1-(4-methyl-5-(2-methyl-4-(trifluoromethyl)phenyl)-1H-indazol-1-yl)butyl)picolinamido)propanoic acid], 7.19.

In the case of `Cc1cc(Cl)ccc1-c1ccc2c(cnn2C(CCC(F)(F)F)c2ccc(C(=O)NCCC(=O)O)cc2)c1` (centres unmarked) [Compound #40, 3-[[4-[1-[5-(4-Chloro-2-methyl-phenyl)indazol-1-yl]-4,4,4-trifluorobutyl]benzoyl]amino]propanoic acid], the pKi was 6.31. Then `Cc1c(-c2ccc(Cl)cc2Cl)ccc2nn(C(CC(C)C)c3ccc(C(=O)NCCC(=O)O)cc3)cc12` (centres unmarked) [Compound #190, 3-(4-(1-(5-(2,4-Dichlorophenyl)-4-methyl-2H-indazol-2-yl)-3-methylbutyl)benzamido)propanoic acid], with 7.60; and `CC(C)CC(c1ccc(C(=O)NCCC(=O)O)nc1)n1cc2cc(-c3cc4ccccc4o3)ccc2n1` (centres unmarked) [Compound #260, 3-(5-(1-(5-(Benzofuran-2-yl)-2H-indazol-2-yl)-3-methylbutyl)picolinamido)propanoic acid], with 6.87.

As for `Cc1cc(Cl)ccc1-c1ccc2c(cnn2C(CC(C)C)c2ccc(C(=O)NCCC(=O)O)nc2)c1` (centres unmarked) [Compound #14, 3-(5-(1-(5-(4-Chloro-2-methylphenyl)-1H-indazol-1-yl)-3-methylbutyl)picolinamido)propanoic acid], the pKi is 6.35. Then `Cc1c(-c2ccc(Cl)cc2Cl)ccc2c1cnn2C(CC(C)C)c1ccc(C(=O)NCCC(=O)O)cc1` (centres unmarked) [Compound #127, 3-(4-(1-(5-(2,4-Dichlorophenyl)-4-methyl-1H-indazol-1-yl)-3-methylbutyl)benzamido)propanoic acid], with 6.51; and `O=C(O)CCNC(=O)c1ccc(C(CC2CCCC2)n2ncc3cc(-c4ccc(C(F)(F)F)cc4)ccc32)cn1` (centres unmarked) [compound 199], with 6.51; and `CC(C)CC(c1ccc(C(=O)NCCC(=O)O)nc1)n1ncc2cc(-c3ccc(OC(F)(F)F)cc3)ccc21` (centres unmarked) [Compound #114, 3-(5-(3-Methyl-1-(5-(4-(trifluoromethoxy)phenyl)-1H-indazol-1-yl)butyl)picolinamido)propanoic acid], with 6.19. For `CC(C)(C)CC(c1ccc(C(=O)NCCC(=O)O)nc1)n1cc2cc(-c3ccc(C(F)(F)F)cc3)ccc2n1` (centres unmarked) [compound 212] the value was 7.05.

Regarding `Cc1cc2c(cnn2C(CC(C)C)c2ccc(C(=O)NCCC(=O)O)cc2)cc1-c1cc2cc(F)ccc2s1` (centres unmarked) [Compound #158, 3-[[4-[1-[5-(5-Fluorobenzothiophen-2-yl)-6-methyl-indazol-1-yl]-3-methyl-butyl]benzoyl]amino]propanoic acid], the pKi was 6.72. Then `Cc1cc(Cl)ccc1-c1ccc2nn(C(CC3CCCCC3)c3ccc(C(=O)NCCC(=O)O)nc3)cc2c1` (centres unmarked) [compound 249], with 7.38; and `CC(C)(C)CC(c1ccc(C(=O)NCCC(=O)O)cc1)n1cc2cc(-c3ccc(C(F)(F)F)cc3)ccc2n1` (centres unmarked) [compound 61], with 7.28; and `COc1c(-c2ccc(C(F)(F)F)cc2C)ccc2nn(C(CC(C)C)c3ccc(C(=O)NCCC(=O)O)cc3)cc12` (centres unmarked) [Compound #233, 3-(4-(1-(4-Methoxy-5-(2-methyl-4-(trifluoromethyl)phenyl)-2H-indazol-2-yl)-3-methylbutyl)benz-amido)propanoic acid], with 7.62. Turning to `Cc1cc(C(F)(F)F)ccc1-c1cc2cnn(C(CC(C)C)c3ccc(C(=O)NCCC(=O)O)nc3)c2cc1C` (centres unmarked) [Compound #214, 3-[[5-[3-Methyl-1-[6-methyl-5-[2-methyl-4-(trifluoromethyl)phenyl]indazol-1-yl]butyl]pyridine-2-carbonyl]amino]propanoic acid], the pKi is 7.49. Then `Cc1cc(Cl)ccc1-c1ccc2c(cnn2C(CC(C)(C)C)c2ccc(C(=O)NCCC(=O)O)cc2)c1` (centres unmarked) [compound 151], with 7.05; and `CC(C)CC(c1ccc(C(=O)NCCC(=O)O)cc1)n1ncc2cc(-c3ccc(C(C)(C)C)cc3)ccc21` (single isomer, unassigned) [Compound #163], with 6.33; and `Cc1cc(Cl)ccc1-c1ccc2nn(C(CC(C)C)c3ccc(C(=O)NCCC(=O)O)cc3)cc2c1C` (centres unmarked) [Compound #20, 3-(4-(1-(5-(4-Chloro-2-methylphenyl)-4-methyl-2H-indazol-2-yl)-3-methylbutyl)benzamido)propanoic acid], with 7.60. For `CCCCCCC(c1ccc(C(=O)NCCC(=O)O)cc1)n1ncc2cc(-c3ccc(C(F)(F)F)cc3)ccc21` (centres unmarked) [compound 159] the value was 6.81.

Regarding `Cc1cc(Cl)ccc1-c1ccc2nn(C(CC3CCCCC3)c3ccc(C(=O)NCCC(=O)O)cc3)cc2c1` (centres unmarked) [compound 153], the pKi is 7.38.

For `CC(C)CC(c1ccc(C(=O)NCCC(=O)O)cc1)n1cc2cc(-c3cc4ccc(F)cc4s3)ccc2n1` (centres unmarked) [compound 57], the pKi was 6.77. Then `CC(C)CC(c1ccc(C(=O)NCCC(=O)O)cc1)n1cc2cc(-c3ccc(C(C)(C)C)cc3)ccc2n1` (centres unmarked) [Compound #34, 3-(4-(1-(5-(4-(tert-butyl)phenyl)-2H-indazol-2-yl)-3-methylbutyl)benzamido)propanoic acid], with 7.07.
